Measured values: ChEMBL document CHEMBL4665869, “New thiazolopyrimidine as anticancer agents: Synthesis, biological evaluation, DNA binding, molecular modeling and ADMET study” (Bioorg Med Chem Lett, 2020)
Converted amounts (≈) assume the structure as drawn.

Experiments:
[1] = system: LOX IMVI; assay: Growth inhibition of human LOX IMVI cells at 10 uM relative to control; assay type: functional; conditions: read-out: GI
[2] = system: MDA-MB-468; assay: Growth inhibition of human MDA-MB-468 cells at 10 uM relative to control; assay type: functional; conditions: read-out: GI
[3] = system: T47D; assay: Growth inhibition of human T47D cells at 10 uM relative to control; assay type: functional; conditions: read-out: GI
[4] = system: CCRF-CEM; assay: Growth inhibition of human CCRF-CEM cells at 10 uM relative to control; assay type: functional; conditions: read-out: GI
[5] = system: HL-60(TB); assay: Growth inhibition of human HL-60(TB) cells at 10 uM relative to control; assay type: functional; conditions: read-out: GI
[6] = system: K562; assay: Growth inhibition of human K562 cells at 10 uM relative to control; assay type: functional; conditions: read-out: GI
[7] = system: MOLT-4; assay: Growth inhibition of human MOLT-4 cells at 10 uM relative to control; assay type: functional; conditions: read-out: GI
[8] = system: RPMI-8226; assay: Growth inhibition of human RPMI-8226 cells at 10 uM relative to control; assay type: functional; conditions: read-out: GI
[9] = system: SR; assay: Growth inhibition of human SR cells at 10 uM relative to control; assay type: functional; conditions: read-out: GI
[10] = system: A549; assay: Growth inhibition of human A549 cells at 10 uM relative to control; assay type: functional; conditions: read-out: GI
[11] = system: HOP-62; assay: Growth inhibition of human HOP-62 cells at 10 uM relative to control; assay type: functional; conditions: read-out: GI
[12] = system: NCI-H226; assay: Growth inhibition of human NCI-H226 cells at 10 uM relative to control; assay type: functional; conditions: read-out: GI
[13] = system: NCI-H23; assay: Growth inhibition of human NCI-H23 cells at 10 uM relative to control; assay type: functional; conditions: read-out: GI
[14] = system: NCI-H322M; assay: Growth inhibition of human NCI-H322M cells at 10 uM relative to control; assay type: functional; conditions: read-out: GI
[15] = system: NCI-H460; assay: Growth inhibition of human NCI-H460 cells at 10 uM relative to control; assay type: functional; conditions: read-out: GI
[16] = system: NCI-H522; assay: Growth inhibition of human NCI-H522 cells at 10 uM relative to control; assay type: functional; conditions: read-out: GI
[17] = system: SW-620; assay: Growth inhibition of human SW-620 cells at 10 uM relative to control; assay type: functional; conditions: read-out: GI
[18] = system: COLO 205; assay: Growth inhibition of human COLO 205 cells at 10 uM relative to control; assay type: functional; conditions: read-out: GI
[19] = system: HCC 2998; assay: Growth inhibition of human HCC 2998 cells at 10 uM relative to control; assay type: functional; conditions: read-out: GI
[20] = system: HCT-116; assay: Growth inhibition of human HCT-116 cells at 10 uM relative to control; assay type: functional; conditions: read-out: GI
[21] = system: HCT-15; assay: Growth inhibition of human HCT-15 cells at 10 uM relative to control; assay type: functional; conditions: read-out: GI
[22] = system: HT-29; assay: Growth inhibition of human HT-29 cells at 10 uM relative to control; assay type: functional; conditions: read-out: GI
[23] = system: KM12; assay: Growth inhibition of human KM12 cells at 10 uM relative to control; assay type: functional; conditions: read-out: GI
[24] = system: SF-268; assay: Growth inhibition of human SF-268 cells at 10 uM relative to control; assay type: functional; conditions: read-out: GI
[25] = system: SF-295; assay: Growth inhibition of human SF-295 cells at 10 uM relative to control; assay type: functional; conditions: read-out: GI
[26] = system: SF-539; assay: Growth inhibition of human SF-539 cells at 10 uM relative to control; assay type: functional; conditions: read-out: GI
[27] = system: SNB-19; assay: Growth inhibition of human SNB-19 cells at 10 uM relative to control; assay type: functional; conditions: read-out: GI
[28] = system: SNB-75; assay: Growth inhibition of human SNB-75 cells at 10 uM relative to control; assay type: functional; conditions: read-out: GI
[29] = system: U-251; assay: Growth inhibition of human U-251 cells at 10 uM relative to control; assay type: functional; conditions: read-out: GI
[30] = system: Malme-3M; assay: Growth inhibition of human Malme-3M cells at 10 uM relative to control; assay type: functional; conditions: read-out: GI
[31] = system: M14; assay: Growth inhibition of human M14 cells at 10 uM relative to control; assay type: functional; conditions: read-out: GI
[32] = system: MDA-MB-435; assay: Growth inhibition of human MDA-MB-435 cells at 10 uM relative to control; assay type: functional; conditions: read-out: GI
[33] = system: SK-MEL-2; assay: Growth inhibition of human SK-MEL-2 cells at 10 uM relative to control; assay type: functional; conditions: read-out: GI
[34] = system: SK-MEL-28; assay: Growth inhibition of human SK-MEL-28 cells at 10 uM relative to control; assay type: functional; conditions: read-out: GI
[35] = system: SK-MEL-5; assay: Growth inhibition of human SK-MEL-5 cells at 10 uM relative to control; assay type: functional; conditions: read-out: GI
[36] = system: UACC-257; assay: Growth inhibition of human UACC-257 cells at 10 uM relative to control; assay type: functional; conditions: read-out: GI
[37] = system: UACC-62; assay: Growth inhibition of human UACC-62 cells at 10 uM relative to control; assay type: functional; conditions: read-out: GI
[38] = system: IGROV-1; assay: Growth inhibition of human IGROV-1 cells at 10 uM relative to control; assay type: functional; conditions: read-out: GI
[39] = system: OVCAR-4; assay: Growth inhibition of human OVCAR-4 cells at 10 uM relative to control; assay type: functional; conditions: read-out: GI
[40] = system: OVCAR-5; assay: Growth inhibition of human OVCAR-5 cells at 10 uM relative to control; assay type: functional; conditions: read-out: GI
[41] = system: OVCAR-8; assay: Growth inhibition of human OVCAR-8 cells at 10 uM relative to control; assay type: functional; conditions: read-out: GI
[42] = system: NCI/ADR-RES; assay: Growth inhibition of human NCI/ADR-RES cells at 10 uM relative to control; assay type: functional; conditions: read-out: GI
[43] = system: SK-OV-3; assay: Growth inhibition of human SK-OV-3 cells at 10 uM relative to control; assay type: functional; conditions: read-out: GI
[44] = system: 786-0; assay: Growth inhibition of human 786-0 cells at 10 uM relative to control; assay type: functional; conditions: read-out: GI
[45] = system: A498; assay: Growth inhibition of human A498 cells at 10 uM relative to control; assay type: functional; conditions: read-out: GI
[46] = system: ACHN; assay: Growth inhibition of human ACHN cells at 10 uM relative to control; assay type: functional; conditions: read-out: GI
[47] = system: CAKI-1; assay: Growth inhibition of human CAKI-1 cells at 10 uM relative to control; assay type: functional; conditions: read-out: GI
[48] = system: RXF 393; assay: Growth inhibition of human RXF 393 cells at 10 uM relative to control; assay type: functional; conditions: read-out: GI
[49] = system: SN12C; assay: Growth inhibition of human SN12C cells at 10 uM relative to control; assay type: functional; conditions: read-out: GI
[50] = system: TK-10; assay: Growth inhibition of human TK-10 cells at 10 uM relative to control; assay type: functional; conditions: read-out: GI
[51] = system: UO-31; assay: Growth inhibition of human UO-31 cells at 10 uM relative to control; assay type: functional; conditions: read-out: GI
[52] = system: PC-3; assay: Growth inhibition of human PC-3 cells at 10 uM relative to control; assay type: functional; conditions: read-out: GI
[53] = system: DU-145; assay: Growth inhibition of human DU-145 cells at 10 uM relative to control; assay type: functional; conditions: read-out: GI
[54] = system: MCF7; assay: Growth inhibition of human MCF7 cells at 10 uM relative to control; assay type: functional; conditions: read-out: GI
[55] = system: MDA-MB-231; assay: Growth inhibition of human MDA-MB-231 cells at 10 uM relative to control; assay type: functional; conditions: read-out: GI
[56] = system: Hs-578T; assay: Growth inhibition of human Hs-578T cells at 10 uM relative to control; assay type: functional; conditions: read-out: GI
[57] = system: BT-549; assay: Growth inhibition of human BT-549 cells at 10 uM relative to control; assay type: functional; conditions: read-out: GI
[58] = target: DNA; assay: Displacement of methyl green from DNA (unknown origin) assessed as DNA intercalation after 24 hrs by colorimetric assay; assay type: nucleic-acid assay

CCOC(=O)C1=CSC2=NC(/C=C/c3ccc(Cl)cc3)=CC(c3ccc(Cl)cc3)N12 (stereo not drawn)
inhibition of growth at 10 µM [1]: < 10% | inhibition of growth at 10 µM [2]: < 10% | inhibition of growth at 10 µM [3]: < 10% | inhibition of growth at 10 µM [4]: < 10% | inhibition of growth at 10 µM [5]: < 10% | inhibition of growth at 10 µM [6]: 12.4% | inhibition of growth at 10 µM [7]: 16.7% | inhibition of growth at 10 µM [8]: < 10% | inhibition of growth at 10 µM [9]: < 10% | inhibition of growth at 10 µM [10]: < 10% | inhibition of growth at 10 µM [11]: < 10% | inhibition of growth at 10 µM [12]: < 10% | inhibition of growth at 10 µM [13]: < 10% | inhibition of growth at 10 µM [14]: < 10% | inhibition of growth at 10 µM [15]: < 10% | inhibition of growth at 10 µM [16]: < 10% | inhibition of growth at 10 µM [17]: < 10% | inhibition of growth at 10 µM [18]: < 10% | inhibition of growth at 10 µM [19]: < 10% | inhibition of growth at 10 µM [20]: < 10% | inhibition of growth at 10 µM [21]: < 10% | inhibition of growth at 10 µM [22]: < 10% | inhibition of growth at 10 µM [23]: < 10% | inhibition of growth at 10 µM [24]: < 10% | inhibition of growth at 10 µM [25]: < 10% | inhibition of growth at 10 µM [26]: < 10% | inhibition of growth at 10 µM [27]: < 10% | inhibition of growth at 10 µM [28]: < 10% | inhibition of growth at 10 µM [29]: 14.6% | inhibition of growth at 10 µM [30]: < 10% | inhibition of growth at 10 µM [31]: < 10% | inhibition of growth at 10 µM [32]: < 10% | inhibition of growth at 10 µM [33]: < 10% | inhibition of growth at 10 µM [34]: < 10% | inhibition of growth at 10 µM [35]: < 10% | inhibition of growth at 10 µM [36]: < 10% | inhibition of growth at 10 µM [37]: < 10% | inhibition of growth at 10 µM [38]: < 10% | inhibition of growth at 10 µM [39]: < 10% | inhibition of growth at 10 µM [40]: < 10% | inhibition of growth at 10 µM [41]: < 10% | inhibition of growth at 10 µM [42]: < 10% | inhibition of growth at 10 µM [43]: < 10% | inhibition of growth at 10 µM [44]: < 10% | inhibition of growth at 10 µM [45]: 11.8% | inhibition of growth at 10 µM [46]: < 10% | inhibition of growth at 10 µM [47]: < 10% | inhibition of growth at 10 µM [48]: < 10% | inhibition of growth at 10 µM [49]: < 10% | inhibition of growth at 10 µM [50]: < 10% | inhibition of growth at 10 µM [51]: < 10% | inhibition of growth at 10 µM [52]: < 10% | inhibition of growth at 10 µM [53]: < 10% | inhibition of growth at 10 µM [54]: < 10% | inhibition of growth at 10 µM [55]: < 10% | inhibition of growth at 10 µM [56]: < 10% | inhibition of growth at 10 µM [57]: < 10% | IC50 [58]: 79.28 µg/mL (≈ 173 µM)
